Data from patent publication US6525001B1, “Substituted pyrimidine and pyridine herbicides” (Mid-American Commercialization Corporation, priority 1997, dated 2003).

Columns and labels:
Assay in all cases: Test B pre-/postemergence
Format in all cases: in vivo
Design in all cases: key: 0 is no effect; 10 is complete control
[1] = test system: broadleaf signalgrass (Brachiaria decumbens)
In short: (§1)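 Seeds were planted and sprayed preemergence, while plants at 2 to 18 cm (1- to 4-leaf stage) were sprayed postemergence at the same time, with test chemical in a non-phytotoxic solvent mixture containing surfactant. After twelve to sixteen days in a greenhouse, injury was rated visually against untreated controls on a 0–10 scale.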

[2] = test system: sugar beet (Beta vulgaris)
In short: as §1

rape (Brassica napus) = test system: rape (Brassica napus)
In short: as §1

[3] = test system: momingglory (Ipomoea hederacea)
In short: as §1

wild oat (Avena fatua) = test system: wild oat (Avena fatua)
In short: as §1

[4] = test system: bedstraw (Galium aparine)
In short: as §1

soybean (Glycine max) = test system: soybean (Glycine max)
In short: as §1

[5] = test system: blackgrass (Alopecurus myosuroides)
In short: as §1

[6] = test system: wheat (Triticum aestivum)
In short: as §1

[7] = test system: velvetleaf (Abutilon theophrasti)
In short: as §1

[8] = test system: crabgrass (Digitaria sanguinalis)
In short: as §1

corn (Zea mays) = test system: corn (Zea mays)
In short: as §1

[9] = test system: cocklebur (Xanthium strumarium)
In short: as §1

[10] = test system: pigweed (Amaranthus retroflexus)
In short: as §1

[11] = Preemergence, Rate 62 g/ha, scale of 0 to 10

## Cc1cnc(-n2ccc(C(F)(F)F)n2)nc1C(=O)c1cccc(C(F)(F)F)c1 [Compound 59]
[1]; Rate 62 g/ha, Postemergence
  B. signalgrass plant response rating: 2
[1]; Rate 62 g/ha, Preemergence
  B. signalgrass plant response rating: 7
[1]; Rate 125 g/ha, Postemergence
  B. signalgrass plant response rating: 2
[1]; Rate 125 g/ha, Preemergence
  Plant response rating, B. signalgrass: 9
[1]; Rate 250 g/ha, Postemergence
  Plant response rating, B. signalgrass: 2
[1]; Rate 250 g/ha, Preemergence
  Plant response rating, B. signalgrass: 9
[1]; Rate 500 g/ha, Postemergence
  Plant response rating, B. signalgrass: 3
[1]; Rate 500 g/ha, Preemergence
  Plant response rating, B. signalgrass: 9
[2]; [11]
  Plant response rating, Sugarbeets: 10
[2]; Rate 62 g/ha, Postemergence
  Sugarbeets plant response rating: 9
[2]; Rate 125 g/ha, Postemergence
  Sugarbeets plant response rating: 9
[2]; Rate 125 g/ha, Preemergence
  Plant response rating, Sugarbeets: 10
[2]; Rate 250 g/ha, Postemergence
  Plant response rating, Sugarbeets: 9
[2]; Rate 250 g/ha, Preemergence
  Plant response rating, Sugarbeets: 10
[2]; Rate 500 g/ha, Postemergence
  Plant response rating, Sugarbeets: 9
[2]; Rate 500 g/ha, Preemergence
  Plant response rating, Sugarbeets: 10
Rape (Brassica napus); [11]
  Plant response rating, Rape: 5
Rape (Brassica napus); Rate 62 g/ha, Postemergence
  Rape plant response rating: 6
Rape (Brassica napus); Rate 125 g/ha, Postemergence
  Rape plant response rating: 7
Rape (Brassica napus); Rate 125 g/ha, Preemergence
  Plant response rating, Rape: 7
Rape (Brassica napus); Rate 250 g/ha, Postemergence
  Plant response rating, Rape: 7
Rape (Brassica napus); Rate 250 g/ha, Preemergence
  Plant response rating, Rape: 7
Rape (Brassica napus); Rate 500 g/ha, Postemergence
  Plant response rating, Rape: 7
Rape (Brassica napus); Rate 500 g/ha, Preemergence
  Plant response rating, Rape: 10
[3]; [11]
  Plant response rating, Morningglory: 6
[3]; Rate 62 g/ha, Postemergence
  Morningglory plant response rating: 7
[3]; Rate 125 g/ha, Preemergence
  Plant response rating, Morningglory: 6
[3]; Rate 250 g/ha, Postemergence
  Plant response rating, Morningglory: 10
[3]; Rate 250 g/ha, Preemergence
  Plant response rating, Morningglory: 10
[3]; Rate 500 g/ha, Postemergence
  Plant response rating, Morningglory: 10
[3]; Rate 500 g/ha, Preemergence
  Plant response rating, Morningglory: 10
Wild oat (Avena fatua); [11]
  Plant response rating, Wild oats: 7
Wild oat (Avena fatua); Rate 62 g/ha, Postemergence
  Wild oats plant response rating: 1
Wild oat (Avena fatua); Rate 125 g/ha, Postemergence
  Wild oats plant response rating: 1
Wild oat (Avena fatua); Rate 125 g/ha, Preemergence
  Plant response rating, Wild oats: 8
Wild oat (Avena fatua); Rate 250 g/ha, Postemergence
  Plant response rating, Wild oats: 3
Wild oat (Avena fatua); Rate 250 g/ha, Preemergence
  Plant response rating, Wild oats: 9
Wild oat (Avena fatua); Rate 500 g/ha, Postemergence
  Plant response rating, Wild oats: 6
Wild oat (Avena fatua); Rate 500 g/ha, Preemergence
  Plant response rating, Wild oats: 9
[4]; [11]
  Plant response rating, Bedstraw: 3
[4]; Rate 62 g/ha, Postemergence
  Bedstraw plant response rating: 7
[4]; Rate 125 g/ha, Postemergence
  Bedstraw plant response rating: 7
[4]; Rate 125 g/ha, Preemergence
  Plant response rating, Bedstraw: 6
[4]; Rate 250 g/ha, Postemergence
  Plant response rating, Bedstraw: 8
[4]; Rate 250 g/ha, Preemergence
  Plant response rating, Bedstraw: 6
[4]; Rate 500 g/ha, Postemergence
  Plant response rating, Bedstraw: 9
[4]; Rate 500 g/ha, Preemergence
  Plant response rating, Bedstraw: 8
Soybean (Glycine max); [11]
  Plant response rating, Soybean: 1
Soybean (Glycine max); Rate 62 g/ha, Postemergence
  Soybean plant response rating: 6
Soybean (Glycine max); Rate 125 g/ha, Postemergence
  Soybean plant response rating: 7
Soybean (Glycine max); Rate 125 g/ha, Preemergence
  Plant response rating, Soybean: 2
Soybean (Glycine max); Rate 250 g/ha, Postemergence
  Plant response rating, Soybean: 8
Soybean (Glycine max); Rate 250 g/ha, Preemergence
  Plant response rating, Soybean: 2
Soybean (Glycine max); Rate 500 g/ha, Postemergence
  Plant response rating, Soybean: 9
Soybean (Glycine max); Rate 500 g/ha, Preemergence
  Plant response rating, Soybean: 4
[5]; [11]
  Plant response rating, Blackgrass: 2
[5]; Rate 62 g/ha, Postemergence
  Blackgrass plant response rating: 2
[5]; Rate 125 g/ha, Postemergence
  Blackgrass plant response rating: 3
[5]; Rate 125 g/ha, Preemergence
  Plant response rating, Blackgrass: 3
[5]; Rate 250 g/ha, Postemergence
  Plant response rating, Blackgrass: 5
[5]; Rate 250 g/ha, Preemergence
  Plant response rating, Blackgrass: 7
[5]; Rate 500 g/ha, Postemergence
  Plant response rating, Blackgrass: 6
[5]; Rate 500 g/ha, Preemergence
  Plant response rating, Blackgrass: 9
[6]; [11]
  Plant response rating, Wheat: 1
[6]; Rate 62 g/ha, Postemergence
  Wheat plant response rating: 1
[6]; Rate 125 g/ha, Postemergence
  Wheat plant response rating: 2
[6]; Rate 125 g/ha, Preemergence
  Plant response rating, Wheat: 2
[6]; Rate 250 g/ha, Postemergence
  Plant response rating, Wheat: 2
[6]; Rate 250 g/ha, Preemergence
  Plant response rating, Wheat: 3
[6]; Rate 500 g/ha, Postemergence
  Plant response rating, Wheat: 3
[6]; Rate 500 g/ha, Preemergence
  Plant response rating, Wheat: 5
[7]; [11]
  Plant response rating, Velvetleaf: 7
[7]; Rate 62 g/ha, Postemergence
  Velvetleaf plant response rating: 6
[7]; Rate 125 g/ha, Postemergence
  Velvetleaf plant response rating: 7
[7]; Rate 125 g/ha, Preemergence
  Plant response rating, Velvetleaf: 7
[7]; Rate 250 g/ha, Postemergence
  Plant response rating, Velvetleaf: 7
[7]; Rate 250 g/ha, Preemergence
  Plant response rating, Velvetleaf: 9
[7]; Rate 500 g/ha, Postemergence
  Plant response rating, Velvetleaf: 8
[7]; Rate 500 g/ha, Preemergence
  Plant response rating, Velvetleaf: 10
[8]; [11]
  Plant response rating, Crabgrass: 8
[8]; Rate 62 g/ha, Postemergence
  Crabgrass plant response rating: 6
[8]; Rate 125 g/ha, Postemergence
  Crabgrass plant response rating: 6
[8]; Rate 125 g/ha, Preemergence
  Plant response rating, Crabgrass: 9
[8]; Rate 250 g/ha, Postemergence
  Plant response rating, Crabgrass: 8
[8]; Rate 250 g/ha, Preemergence
  Plant response rating, Crabgrass: 10
[8]; Rate 500 g/ha, Postemergence
  Plant response rating, Crabgrass: 9
[8]; Rate 500 g/ha, Preemergence
  Plant response rating, Crabgrass: 10
Corn (Zea mays); [11]
  Plant response rating, Corn: 0
Corn (Zea mays); Rate 62 g/ha, Postemergence
  Corn plant response rating: 1
Corn (Zea mays); Rate 125 g/ha, Postemergence
  Corn plant response rating: 2
Corn (Zea mays); Rate 125 g/ha, Preemergence
  Plant response rating, Corn: 1
Corn (Zea mays); Rate 250 g/ha, Postemergence
  Plant response rating, Corn: 3
Corn (Zea mays); Rate 250 g/ha, Preemergence
  Plant response rating, Corn: 1
Corn (Zea mays); Rate 500 g/ha, Postemergence
  Plant response rating, Corn: 4
Corn (Zea mays); Rate 500 g/ha, Preemergence
  Plant response rating, Corn: 3
[9]; [11]
  Plant response rating, Cocklebur: 0
[9]; Rate 62 g/ha, Postemergence
  Cocklebur plant response rating: 4
[9]; Rate 125 g/ha, Postemergence
  Cocklebur plant response rating: 7
[9]; Rate 125 g/ha, Preemergence
  Plant response rating, Cocklebur: 2
[9]; Rate 250 g/ha, Postemergence
  Plant response rating, Cocklebur: 7
[9]; Rate 500 g/ha, Postemergence
  Plant response rating, Cocklebur: 8
[9]; Rate 500 g/ha, Preemergence
  Plant response rating, Cocklebur: 2
[10]; [11]
  Plant response rating, Redroot pigweed: 8
[10]; Rate 62 g/ha, Postemergence
  Redroot pigweed plant response rating: 8
[10]; Rate 125 g/ha, Postemergence
  Redroot pigweed plant response rating: 8
[10]; Rate 125 g/ha, Preemergence
  Plant response rating, Redroot pigweed: 10
[10]; Rate 250 g/ha, Postemergence
  Plant response rating, Redroot pigweed: 8
[10]; Rate 250 g/ha, Preemergence
  Plant response rating, Redroot pigweed: 10
[10]; Rate 500 g/ha, Postemergence
  Plant response rating, Redroot pigweed: 9
[10]; Rate 500 g/ha, Preemergence
  Plant response rating, Redroot pigweed: 10
